Measured values as given in publication PMC11794677, “Self‐Assembly of a Conjugate of Lipoic Acid With a Collagen‐Stimulating Pentapeptide Showing Cytocompatibility and Wound Healing Properties, and Chemical and Photolytic Disassembly” (Journal of Peptide Science, 2025).

Key:
HDFa cells = assay: Scratch assay of in vitro wound healing; format: cell-based, Human; conditions: 0.0062 wt% in DMEM without serum
Description: For the scratch assay, 5 × 10^4 cells into were seeded into 24‐well plates, and cells were allowed to reach confluence. After reaching 90% confluence, a scratch was made in the middle of the well using a 200‐μL pipette tip and cells were incubated at 37°C in an atmosphere 5% CO2. The media used was DMEM without serum for the controls or DMEM without serum + lipoyl‐KTTKS at different concentrations. Pictures were taken periodically using a standard inverted optical microscope with phase contrast filters to monitor cell migration and wound closure.
As a simple in vitro ‘wound healing’ model, scratch assays were performed by creating a scratch in a layer of cells. Images of the confluent cell layer are presented in SI Figure S5. The scratch assay is a simple and affordable procedure consisting of simulating the closure of a skin wound by scratching a monolayer of fibroblasts seeded at high confluence and monitoring how long it takes for the cells to migrate and recover the ‘wound’ [51, 52, 53]. As evident from the images in Figure S5, the recovery of cells incubated with 0.0062 wt% lipoyl‐KTTKS was enhanced, with complete closure of the scratch after 48 h.

RAW 264.7 cells = assay: Nitrite (inflammation) assay with Griess reagent; format: cell-based; conditions: 2 μg LPS, 24 h, different concentrations, absorbance 550 nm, ANOVA with Bonferroni correction
Description: To detect nitrite, the Griess reagent assay was used, following protocols described previously. Amounts 5 × 10^3 RAW 264.7 cells were seeded in a 96‐well plate and incubated for 24 h inside the cell incubator. After 24 h, the cells were washed three times with PBS and incubated in 100 μL of DMEM + 2 μg of LPS (lipopolysaccharide) for 24 h. After incubation in the presence of LPS, 100 μL of Griess reagent solution was added to each well and incubated for 10 min at room temperature. The resulting absorbance was measured at 550 nm using an Infinite F50 microplate reader (TECAN, Switzerland).
The Griess reagent assay was used as an indirect measure of the production of nitrite ions, an important species related to inflammation, by monitoring the presence of nitrites in media via colorimetric (UV‐vis absorbance) measurements. The assay was performed by incubating the cells in DMEM containing 2 μg of LPS with different concentrations of lipoyl‐KTTKS. Controls containing only LPS and RAW cells incubated in DMEM without LPS were also prepared.

[1] = test system: procollagen type I carboxy-terminal peptide (PIP); conditions: cited from earlier work
From the text: Here, we investigate the structural properties, biocompatibility and collagen‐stimulating activity of a novel peptide amphiphile comprising a conjugate of lipoic acid to pentapeptide KTTKS, termed lipoyl‐KTTKS (Scheme 1). […] This can be contrasted with previous reported data f ...

[2] = cited from earlier work
From the text: (§1) Here, we investigate the structural properties, biocompatibility and collagen‐stimulating activity of a novel peptide amphiphile comprising a conjugate of lipoic acid to pentapeptide KTTKS, termed lipoyl‐KTTKS (Scheme 1).

[3] = test system: UV-induced collagenase (MMP-1); conditions: cited from earlier work
From the text: as §1

melanin synthesis = conditions: cited from earlier work
From the text: as §1

tyrosinase = conditions: cited from earlier work
From the text: as §1

lipoyl‐KTTKS [peptide amphiphile comprising a conjugate of lipoic acid to pentapeptide KTTKS]
Time to first signs of recovery of the scratch (HDFa cells): 12 h | Time to complete closure of the scratch (HDFa cells; control closed only after 72 h): 48 h | Production of nitrites compared with cells incubated only in DMEM (without LPS) (RAW 264.7 cells; n = 3): statistically significant increase | Production of nitrites compared with cells incubated only in DMEM (without LPS) (RAW 264.7 cells; n = 3, listed as lipoyl‐KTKKS): increase | Increase in collagen synthesis compared with negative control ([1]; 0.038 wt% (0.5 mM) sample, enzyme immunoassay of PIP, single data point): 65% | Collagen synthesis relative to control and KTTKS [1]: superior to control and KTTKS itself | Cytocompatibility [2]: good cytocompatibility | Effect on UV-induced collagenase (MMP-1) activity [3]: inhibits | Effect on melanin synthesis (melanin synthesis): inhibits | Effect on tyrosinase activity (tyrosinase): inhibits
